Assay results published in BindingDB's records for doi:10.1016/j.bmcl.2006.08.053 (Merck Research Laboratories, 2006).

Assay: Release of camptothecin-induced cell cycle arrest in NCI-H1299 cells mediated by CHEK1 inhibition

| SMILES | EC50 [µM] |
| --- | --- |
| N#Cc1ccc2[nH]c(=O)c(-c3cc4cc(CN5CCCCC5)ccc4[nH]3)cc2c1 [2-oxo-3-(5-(piperidin-1-ylmethyl)-1H-indol-2-yl)-1,2-dihydroquinoline-6-carbonitrile] | 0.17 |
| NC(=O)c1ccc2[nH]c(=O)c(-c3cc4cc(CN5CCCCC5)ccc4[nH]3)cc2c1 [2-oxo-3-(5-(piperidin-1-ylmethyl)-1H-indol-2-yl)-1,2-dihydroquinoline-6-carboxamide] | 0.52 |
| NCC1CCN(Cc2ccc3[nH]c(-c4cc5cc(C(N)=O)ccc5[nH]c4=O)cc3c2)CC1 [3-(5-((4-(aminomethyl)piperidin-1-yl)methyl)-1H-indol-2-yl)-2-oxo-1,2-dihydroquinoline-6-carboxamide] | 3.9 |
| O=c1[nH]c2ccc(-n3ccnn3)cc2cc1-c1cc2cc(CN3CCCCC3)ccc2[nH]1 [3-(5-(piperidin-1-ylmethyl)-1H-indol-2-yl)-6-(1H-1,2,3-triazol-1-yl)quinolin-2(1H)-one] | 0.23 |
| O=c1[nH]c2ccc(-n3nccn3)cc2cc1-c1cc2cc(CN3CCCCC3)ccc2[nH]1 [3-(5-(piperidin-1-ylmethyl)-1H-indol-2-yl)-6-(2H-1,2,3-triazol-2-yl)quinolin-2(1H)-one] | 0.88 |
| O=c1[nH]c2ccc(-n3ccnc3)cc2cc1-c1cc2cc(CN3CCCCC3)ccc2[nH]1 [6-(1H-imidazol-1-yl)-3-(5-(piperidin-1-ylmethyl)-1H-indol-2-yl)quinolin-2(1H)-one] | 0.32 |
| Cn1nnc(-c2ccc3[nH]c(=O)c(-c4cc5cc(CN6CCCCC6)ccc5[nH]4)cc3c2)n1 [6-(2-methyl-2H-tetrazol-5-yl)-3-(5-(piperidin-1-ylmethyl)-1H-indol-2-yl)quinolin-2(1H)-one] | 1.3 |
| O=c1[nH]c2ccc(-c3cccc(O)c3)cc2cc1-c1cc2cc(CN3CCCCC3)ccc2[nH]1 [6-(3-hydroxyphenyl)-3-(5-(piperidin-1-ylmethyl)-1H-indol-2-yl)quinolin-2(1H)-one] | 6.3 |
| COc1cc(-c2ccc3[nH]c(=O)c(-c4cc5cc(CN6CCCCC6)ccc5[nH]4)cc3c2)ccc1O [6-(4-hydroxy-3-methoxyphenyl)-3-(5-(piperidin-1-ylmethyl)-1H-indol-2-yl)quinolin-2(1H)-one] | > 10 |
| O=c1[nH]c2ccc(Br)cc2cc1-c1cc2cc(CN3CCCCC3)ccc2[nH]1 [6-bromo-3-(5-(piperidin-1-ylmethyl)-1H-indol-2-yl)quinolin-2(1H)-one] | 0.46 |

Now from value to compound:

| EC50 [µM] | SMILES |
| --- | --- |
| 0.097 | O=c1[nH]c2ccc(-c3cn[nH]c3)cc2cc1-c1cc2cc(CN3CCCCC3)ccc2[nH]1 |
| 1.14 | COCC(=O)N1CCN(Cc2ccc3[nH]c(-c4cc5cc(-c6cn[nH]c6)ccc5[nH]c4=O)cc3c2)CC1 [3-(5-((4-(2-methoxyacetyl)piperazin-1-yl)methyl)-1H-indol-2-yl)-6-(1H-pyrazol-4-yl)quinolin-2(1H)-one] |
| 3.7 | N#Cc1ccc2[nH]c(=O)c(-c3cc4cc(CN5CCC(CN)CC5)ccc4[nH]3)cc2c1 [3-(5-((4-(aminomethyl)piperidin-1-yl)methyl)-1H-indol-2-yl)-2-oxo-1,2-dihydroquinoline-6-carbonitrile] |
| 0.42 | CC(=O)N1CCN(Cc2ccc3[nH]c(-c4cc5cc(-c6cnn(C)c6)ccc5[nH]c4=O)cc3c2)CC1 [3-(5-((4-acetylpiperazin-1-yl)methyl)-1H-indol-2-yl)-6-(1-methyl-1H-pyrazol-4-yl)quinolin-2(1H)-one] |
| 0.87 | CC(=O)N1CCN(Cc2ccc3[nH]c(-c4cc5cc(-c6cn[nH]c6)ccc5[nH]c4=O)cc3c2)CC1 [3-(5-((4-acetylpiperazin-1-yl)methyl)-1H-indol-2-yl)-6-(1H-pyrazol-4-yl)quinolin-2(1H)-one] |
| 0.12 | O=c1[nH]c2ccc(-c3cn[nH]c3)cc2cc1-c1cc2cc(CN3CCC(F)CC3)ccc2[nH]1 [3-(5-((4-fluoropiperidin-1-yl)methyl)-1H-indol-2-yl)-6-(1H-pyrazol-4-yl)quinolin-2(1H)-one] |
| 0.17 | O=c1[nH]c2ccc(-c3cn[nH]c3)cc2cc1-c1cc2cc(CN3CCOCC3)ccc2[nH]1 [3-(5-(morpholinomethyl)-1H-indol-2-yl)-6-(1H-pyrazol-4-yl)quinolin-2(1H)-one] |
| 0.25 | O=c1[nH]c2ccc(-c3cc[nH]n3)cc2cc1-c1cc2cc(CN3CCCCC3)ccc2[nH]1 [3-(5-(piperidin-1-ylmethyl)-1H-indol-2-yl)-6-(1H-pyrazol-3-yl)quinolin-2(1H)-one] |
| 0.13 | Cn1cc(-c2ccc3[nH]c(=O)c(-c4cc5cc(CN6CCCCC6)ccc5[nH]4)cc3c2)cn1 [6-(1-methyl-1H-pyrazol-4-yl)-3-(5-(piperidin-1-ylmethyl)-1H-indol-2-yl)quinolin-2(1H)-one] |
| 0.19 | O=c1[nH]c2ccc(-c3cnsc3)cc2cc1-c1cc2cc(CN3CCCCC3)ccc2[nH]1 [6-(isothiazol-4-yl)-3-(5-(piperidin-1-ylmethyl)-1H-indol-2-yl)quinolin-2(1H)-one] |
